Measured values reported in US7179807B2, “5-substituted-2-arylpyrazines” (Neurogen Corporation, priority 2002, dated 2007).

These compounds were tested against T1, CRF1 receptor (Homo sapiens, UniProt P34998) (assay: standard in vitro CRF receptor binding assay (125I-CRF, IMR-32 cell membranes)). Details: Table I; asterisk = tested in the Example 30 assay, membranes of BrdU-induced IMR-32 cells, 125I-CRF 100 pM; read-out: Ki < 1 μM.
T1 construct: To induce CRF1 receptor expression, the cells are grown to approximately 80% confluence; endogenous in cells; host or cells: IMR-32 human neuroblastoma cells, BrdU-induced, as membrane homogenates
T1 sequence (P34998 24-415): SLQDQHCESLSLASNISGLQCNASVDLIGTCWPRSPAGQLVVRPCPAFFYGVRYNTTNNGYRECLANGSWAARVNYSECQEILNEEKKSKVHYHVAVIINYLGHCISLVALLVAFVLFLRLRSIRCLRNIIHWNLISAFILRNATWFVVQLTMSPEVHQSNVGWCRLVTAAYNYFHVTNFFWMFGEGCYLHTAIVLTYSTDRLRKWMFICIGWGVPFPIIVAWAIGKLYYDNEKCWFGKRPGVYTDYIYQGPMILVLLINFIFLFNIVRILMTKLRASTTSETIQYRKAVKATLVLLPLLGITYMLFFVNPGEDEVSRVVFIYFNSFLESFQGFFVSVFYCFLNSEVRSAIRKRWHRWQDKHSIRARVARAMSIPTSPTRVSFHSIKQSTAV
Description: As discussed above, the following assay is defined herein as a standard in vitro CRF receptor binding assay. The pharmaceutical utility of compounds of this invention is indicated by the following assay for CRF1 receptor activity.
The CRF receptor binding is performed using a modified version of the assay described by Grigoriadis and De Souza (Methods in Neurosciences, Vol. 5, 1991). IMR-32 human neuroblastoma cells, a cell line that can be induced to express the CRF1 receptor, are cultured in growth medium consisting of EMEM w/Earle's BSS (JRH Biosciences, Cat# 51411) supplemented with 10% Fetal Bovine Serum, 25 mM HEPES (pH 7.2), 1 mM Sodium Pyruvate, and Non-Essential Amino Acids (JRH Biosciences, Cat# 58572). Stock cultures of cells are grown to confluence and subcultured twice per week at split ratios of 1:2 to 1:4 (cells are dislodged during subculturing using No-Zyme, JRH Biosciences, Cat# 59226). To induce CRF1 receptor expression, the cells are grown to approximately 80% confluence and then changed to growth media containing 2.5 μM 5-bromo-2′deoxyuridine (BrdU, Sigma, Cat# B9285). Growth media containing BrdU is replaced every 3–4 days and the cells are harvested via centrifugation (using No-Zyme) after 10 days of BrdU treatment. Harvested cells are stored frozen at −80° C. until needed for the preparation of membrane homogenates.
To prepare receptor-containing membranes cells are homogenized in wash buffer (50 mM Tris HCl, 10 mM MgCl2, 2 mM EGTA, pH 7.4) and centrifuged at 48,000×g for 10 minutes at 4° C. The pellet is re-suspended in wash buffer and the homogenization and centrifugation steps are performed once more.
Membrane pellets (containing CRF receptors) are resuspended and brought to a final concentration of 1.0 mg membrane protein/ml in binding buffer (Tris buffer above with 0.1% BSA and 0.1 mM bacitracin). For the binding assay, 150 microliters of the membrane preparation is added to 96 well microtube plates containing 50 microliters of ^125I-CRF (SA 2200 Ci/mmol, final concentration of 100 pM) and 2 microliters of test compound. Binding is carried out at room temperature for 2 hours. Plates are then harvested using 50 mM Tris buffer pH 7.4, on a BRANDEL 96 well cell harvester and filters (soaked in 1% PEI for 1.5 hours) are counted for gamma emissions on a Wallac 1205 BETAPLATE liquid scintillation counter. Non-specific binding is defined by 2 micromolar cold CRF. Ki values are calculated with the non-linear curve fitting program RS/1 (BBN Software Products Corp., Cambridge, Mass.).

Ki, < 1000 nM:
CCc1cc(-c2nc(OC)c(NC(CC)CC)nc2C)c(C)nc1OC [Compound 1, [5-(5-Ethyl-6-methoxy-2-methyl-pyridin-3-yl)-3-methoxy-6-methyl-pyrazin-2-yl]-(1-ethyl-propyl)-amine]
CCC(CC)Nc1nc(C)c(-c2nc(OC)c(NC(CC)CC)nc2C)nc1OC [Compound 2, N-5,N-5′-Bis-(1-ethyl-propyl)-6,6′-dimethoxy-3,3′-dimethyl-[2,2′]bipyrazinyl-5,5′-diamine]
CCc1cc(-c2nc(NC)c(OC(CC)CC)nc2C)c(C)nc1OC [Compound 3, [5-Methyl-6-(5-ethyl-6-methoxy-2-methyl-pyridin-3-yl)-3-(1-ethyl-propoxy)-pyrazin-2-yl]-methyl-amine]
CCc1cc(-c2nc(NC)c(OC(CC)CC)nc2CC)c(C)nc1OC [Compound 4, [5-Ethyl-6-(5-ethyl-6-methoxy-2-methyl-pyridin-3-yl)-3-(1-ethyl-propoxy)-pyrazin-2-yl]-methyl-amine]
CCc1nc(OC(CC)CC)c(NC)nc1-c1c(C)noc1C [Compound 5, [6-(3,5-Dimethyl-isoxazol-4-yl)-5-ethyl-3-(1-ethyl-propoxy)-pyrazin-2-yl]-methyl-amine]
CCc1nc(OC(CC)CC)c(NC)nc1-c1ccc(C(C)C)nc1C [Compound 8, [5-Ethyl-6-(2-methyl-6-isopropyl-2-pyridin-3-yl)-3-(1-ethyl-propoxy)-pyrazin-2-yl]-methyl-amine]
CCc1nc(OC(CC)CC)c(NC)nc1-c1ccc(C(C)C)nc1O [Compound 9, [5-Ethyl-6-(2-hydroxy-6-isopropyl-2-pyridin-3-yl)-3-(1-ethyl-propoxy)-pyrazin-2-yl]-methyl-amine]
CCc1nc(OC(CC)CC)c(NC)nc1-c1ccc(N(C)C)nc1C [Compound 10, [5-Ethyl-6-(2-methyl-6-dimethylamino-2-pyridin-3-yl)-3-(1-ethyl-propoxy)-pyrazin-2-yl]-methyl-amine]
CCc1nc(OC(CC)CC)c(NC)nc1-c1ccc(C(C)C)nc1N(C)C [Compound 11, [5-Ethyl-6-(2-dimethylamino-6-isopropyl-2-pyridin-3-yl)-3-(1-ethyl-propoxy)-pyrazin-2-yl]-methyl-amine]
CCc1nc(OC(CC)CC)c(NC)nc1-c1ccc(C(C)C)nc1N1CCC1 [Compound 13, [6-(2-Azetidin-1-yl-6-isopropyl-pyridin-3-yl)-5-ethyl-3-(1-ethyl-propoxy)-pyrazin-2-yl]-methyl-amine]
CCc1nc(OC(CC)CC)c(NC)nc1-c1ccc(C(C)C)nc1N(CC)CC [Compound 14, [6-(2-Diethylamino-6-isopropyl-pyridin-3-yl)-5-ethyl-3-(1-ethyl-propoxy)-pyrazin-2-yl]-methyl-amine]
CCC(CC)Oc1nc(Br)c(-c2cc(Br)c(NC(C)C)nc2C)nc1NC [Compound 15, [3-(1-Ethyl-propoxy)-6-(6-isopropyl-amino-2-methyl-5-bromo-pyridin-3-yl)-5-bromo-pyrazin-2-yl]-methyl-amine]
CCc1cc(-c2nc(NC)c(OC(CC)CC)nc2CC)c(C)nc1N(C)C [Compound 16, [6-(6-Dimethylamino-5-ethyl-2-methyl-pyridin-3-yl)-5-ethyl-3-(1-ethyl-propoxy)-pyrazin-2-yl]-methyl-amine]
CCC(CC)Oc1nc(C)c(-c2cc(C)c(NC(C)C)nc2C)nc1NC [Compound 17, [3-(1-Ethyl-propoxy)-6-(6-isopropyl-amino-2,5-dimethyl-pyridin-3-yl)-5-methyl-pyrazin-2-yl]-methyl-amine]
[5-Ethyl-6-(2-ethoxy-6-isopropoxy-2-pyridin-3-yl)-3-(1-ethyl-propoxy)-pyrazin-2-yl]-methyl-amine [Compound 7]
[5-Ethyl-6-(2-ethyl-6-isopropoxy-2-pyridin-3-yl)-3-(1-ethyl-propoxy)-pyrazin-2-yl]-methyl-amine [Compound 6]
